Measured values as given in US20060229290A1, “Staurosporine derivatives for hypereosinophilic syndrome” (priority 2003, published 2006).
Read-outs that look alike come from different tables or passages of the source.

What was measured:
FIP1L1-PDGFRαT674I = assay type: in vivo, Balb/c mice; settings: at time of death or trial endpoint
Method: (§1) The retroviral construct MSCV-FIP1L1-PDGFRα-ires-EGFP and the corresponding T674I mutant were described previously (Cools et al., New England Journal of Medicine Vol. 348 No. 13, p 1201-1214 2003). The N659D mutation was introduced by PCR (polymerase chain reaction).
(§2) Balb/c mice were purchased from Taconic (Germantown, N.Y.). Bone marrow transplant assays (injecting 1×10^6 cells per recipient mouse) and drug treatment of the mice was performed as described previously (Schwaller et al., 1998; Kelly et al.; Weisberg et al., 2002). Imatinib (stored as powder at 4° C.) was resuspended in a 0.5% methylcellulose (MC) solution in water prior to use. PKC412 (6% w/w in Gelucire® 44/14 (GC) (Gattefosse,France)) was stored at 4° C. as a waxy-solid formulation. Prior to administration, the GC/PKC412 waxy solid mixture was melted in a 44° C. water bath and diluted with sterilized deionized water. The animals were weighed at regular basis to ensure that a consistent dose (150 mg/kg/day for imatinib and 100 mg/kg/day for PKC412) of drug was administered. Dosing was performed every 12 hr for imatinib and every 24 hr for PKC412 by oral gavage of a maximum volume of 150 μl per animal using 22 gauge gavage needles (Hornbecks). Placebo animals received the same volume of a MC or GC solution. Any animals with splenomegaly (spleen boundary detectable at the dorsal medline) or that were moribund were sacrificed and analysed for signs of hematological disease. Peripheral blood was collected from the retroorbital cavity using a heparinized glass capillary. Blood smears were stained with Wright and Giemsa. Manual and automated (ADIVA 120 Hematology system, Bayer) total and differential blood cell counts were performed. Histopathologic exam of relevant organs (spleen, liver, heart, lungs, Intestine, hindlimb bones, and kidneys) and preparation of single-cell suspensions from spleen and bone marrow for flow cytometry was performed as described. In comparing the survival time of the mice, all times are measured from the day of BMT (bone marrow transplant), and the log rank test is used to attach a significance level to the difference in the survival curve.

FIP1L1-PDGFRα wild type = target: T1, FIP1L1-PDGFRα wild type (Homo sapiens, UniProt P16234); experiment: Bone marrow transplant model of FIP1L1-PDGFRα-induced myeloproliferative disease; assay type: in vivo, Balb/c mice; settings: at time of death or trial endpoint
T1 construct: FIP1L1 (N-terminal part of FIP1-like 1, Q6UN15); expressed in transfected cells; host or cells: Bone marrow cells retrovirally transduced with MSCV-FIP1L1-PDGFRα-ires-EGFP and transplanted into Balb/c mice; the other entry of the earlier key: FIP1L1 (Q6UN15, Pre-mRNA 3'-end-processing factor FIP1)
T1 sequence (P16234 593-1089 limits assumed): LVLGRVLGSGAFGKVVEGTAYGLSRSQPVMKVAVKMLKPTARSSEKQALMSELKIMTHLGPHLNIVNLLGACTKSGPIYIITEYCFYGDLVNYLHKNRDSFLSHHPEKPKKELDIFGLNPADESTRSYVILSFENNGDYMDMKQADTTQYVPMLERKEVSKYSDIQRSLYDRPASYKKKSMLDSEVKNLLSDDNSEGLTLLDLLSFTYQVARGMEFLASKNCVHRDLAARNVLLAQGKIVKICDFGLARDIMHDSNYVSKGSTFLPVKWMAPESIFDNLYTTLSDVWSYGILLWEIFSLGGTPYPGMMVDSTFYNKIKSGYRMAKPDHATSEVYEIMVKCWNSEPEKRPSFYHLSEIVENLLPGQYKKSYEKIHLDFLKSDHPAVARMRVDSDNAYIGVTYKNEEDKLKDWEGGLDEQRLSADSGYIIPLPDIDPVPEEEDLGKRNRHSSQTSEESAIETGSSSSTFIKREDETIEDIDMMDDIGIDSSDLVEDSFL
Method: as §1, §2

[1] = trial 1, FIP1L1-PDGFRαT674I, imatinib 150 mg/kg/day oral gavage
[2] = trial 2, FIP1L1-PDGFRα T674I, imatinib 150 mg/kg/day, PKC412 100 mg/kg/day, oral gavage
[3] = trial 1, FIP1L1-PDGFRα wild type, imatinib 150 mg/kg/day oral gavage
[4] = trial 2, FIP1L1-PDGFRα, imatinib 150 mg/kg/day, PKC412 100 mg/kg/day, oral gavage

## Cc1ccc(NC(=O)c2ccc(CN3CCN(C)CC3)cc2)cc1Nc1nccc(-c2cccnc2)n1 [imatinib]
FIP1L1-PDGFRαT674I; [1]
  WBC, mean: 4.965e+08 mL⁻¹
  WBC, median: 5.077e+08 mL⁻¹
  WBC, range: 434.6-535.8 ×10^6/ml
FIP1L1-PDGFRαT674I; [2]
  WBC, mean: 5.482e+08 mL⁻¹
  WBC, median: 5.915e+08 mL⁻¹
  WBC, range: 364.9-657.6 ×10^6/ml
FIP1L1-PDGFRα wild type; [3]
  WBC, mean: 6e+06 mL⁻¹
  WBC, median: 5.2e+06 mL⁻¹
  WBC, range: 4.6-9.4 ×10^6/ml
FIP1L1-PDGFRα wild type; [4]
  WBC, mean: 4.8e+06 mL⁻¹
  WBC, median: 4.8e+06 mL⁻¹
  WBC, range: 4.4-5.3 ×10^6/ml
